Experimental data as given in patent publication US20260325540A1 (priority 2023, published 2026).

Key:
MERS-CoV 3CLpro = MERS-CoV 3CLpro (Middle East respiratory syndrome-related coronavirus, UniProt K9N638); assay: biochemical; details: MERS IC50, 75 nM MERS-CoV 3CLpro, 6 μM peptide 1 substrate, 25° C., 1.5 hrs, pH 7.5
SARS-CoV-2 3CLpro = SARS-CoV-2 3CLpro (Severe acute respiratory syndrome coronavirus 2, UniProt P0DTD1); assay: FRET based protease assay, SARS-CoV-2 3CL; format: biochemical, SARS-CoV-2 (strain BetaCoV/Wuhan/WIV04/2019)

MERS-CoV 3CLpro, sequence (K9N638 3248-3553 limits assumed): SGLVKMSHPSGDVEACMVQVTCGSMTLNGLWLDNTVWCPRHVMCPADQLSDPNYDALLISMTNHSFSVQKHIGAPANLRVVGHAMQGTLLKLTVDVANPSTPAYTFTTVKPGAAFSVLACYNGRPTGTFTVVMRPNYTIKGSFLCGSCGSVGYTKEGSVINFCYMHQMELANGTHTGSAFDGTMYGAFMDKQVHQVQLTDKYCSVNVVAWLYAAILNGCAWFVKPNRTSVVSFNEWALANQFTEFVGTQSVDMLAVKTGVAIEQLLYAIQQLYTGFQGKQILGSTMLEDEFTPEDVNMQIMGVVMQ

Row | Compound | IC50 (MERS-CoV 3CLpro) [nM] | IC50 (SARS-CoV-2 3CLpro) [nM]
1 | CC(C)C[C@@H]1NC(=O)CCCC[C@@H]2CNC(=O)[C@@H]2C[C@@H](C=O)NC1=O [Example 1] | > 20000 | 1000 to 20000
2 | CC(C)C[C@@H]1NC(=O)CCCC[C@H]2CNC(=O)[C@H]2C[C@@H](C=O)NC1=O [Example 2] | > 20000 | 1000 to 20000
3 | CC(C)C[C@@H]1NC(=O)CCCC[C@H]2CNC(=O)[C@@H]2C[C@@H](C=O)NC1=O [Example 4] | 100 to 1000 | < 100
4 | CC(C)C[C@@H]1NC(=O)[C@@H](Cc2ccccc2)CCC[C@@H]2CNC(=O)[C@@H]2C[C@@H](C=O)NC1=O [Example 9] | 1000 to 20000 | 100 to 1000
5 | CC(C)C[C@@H]1NC(=O)[C@@H](Cc2ccccc2)CCC[C@H]2CNC(=O)[C@@H]2C[C@@H](C=O)NC1=O [Example 10] | 1000 to 20000 | 
6 | CC(C)C[C@@H]1NC(=O)[C@H](Cc2ccccc2)CCC[C@@H]2CNC(=O)[C@@H]2C[C@@H](C=O)NC1=O [Example 11] | 1000 to 20000 | 1000 to 20000
7 | CC(C)C[C@@H]1NC(=O)[C@H](Cc2ccccc2)CCC[C@H]2CNC(=O)[C@H]2C[C@@H](C=O)NC1=O [Example 12] | 1000 to 20000 | 100 to 1000
8 | CC(C)C[C@@H]1NC(=O)[C@@H](C2CCCC2)CCC[C@H]2CNC(=O)[C@H]2C[C@@H](C=O)NC1=O [Example 13] | 1000 to 20000 | 1000 to 20000
9 | CC(C)C[C@@H]1NC(=O)[C@@H](C2CCCC2)CCC[C@@H]2CNC(=O)[C@@H]2C[C@@H](C=O)NC1=O [Example 14] | 1000 to 20000 | 100 to 1000
10 | CC(C)C[C@@H]1NC(=O)[C@@H](NC(=O)OC(C)(C)C)CCC[C@H]2CNC(=O)[C@H]2C[C@@H](C=O)NC1=O [Example 15] | 100 to 1000 | 100 to 1000
11 | CC(C)C[C@@H]1NC(=O)[C@@H](NC(=O)OC(C)(C)C)CCC[C@@H]2CNC(=O)[C@@H]2C[C@@H](C=O)NC1=O [Example 16] | 1000 to 20000 | 100 to 1000
12 | CC(C)C[C@@H]1NC(=O)[C@@H](Cc2ccccc2)CCC[C@H]2CNC(=O)[C@@H]2C[C@@H](C=O)NC1=O [Example 17] | 100 to 1000 | 100 to 1000
13 | CC(C)C[C@@H]1NC(=O)[C@@H](CC2CCCC2)CCC[C@H]2CNC(=O)[C@@H]2C[C@@H](C=O)NC1=O [Example 18] | 100 to 1000 | 100 to 1000
14 | CC(C)C[C@@H]1NC(=O)[C@@H](NC(=O)OC(C)(C)C)CCC[C@H]2CNC(=O)[C@@H]2C[C@@H](C=O)NC1=O [Example 19] | 100 to 1000 | < 100
15 | CC(C)C[C@@H]1NC(=O)[C@@H](OC(C)(C)C)CCC[C@H]2CNC(=O)[C@@H]2C[C@@H](C=O)NC1=O [Example 20] | > 20000 | 1000 to 20000
16 | CC(C)C[C@@H]1NC(=O)[C@H](Cc2ccccc2)CCC[C@H]2CNC(=O)[C@@H]2C[C@@H](C=O)NC1=O [Example 21] | 100 to 1000 | < 100
17 | CC(C)C[C@@H]1NC(=O)[C@@H](N(C)C(=O)OC(C)(C)C)CCC[C@H]2CNC(=O)[C@@H]2C[C@@H](C#N)NC1=O [Example 22] | > 20000 | > 20000
18 | CC(C)C[C@@H]1NC(=O)C(OC2CCCCC2)CCC[C@H]2CNC(=O)[C@@H]2C[C@@H](C#N)NC1=O (stereo partly drawn) [Example 23] | > 20000 | > 20000
19 | CC(C)C[C@@H]1NC(=O)CCCC[C@H]2CNC(=O)[C@@H]2C[C@@H](C#N)NC1=O [Example 24] | 1000 to 20000 | 1000 to 20000

Row | Compound | IC50 (MERS-CoV 3CLpro) [nM] | IC50 (SARS-CoV-2 3CLpro) [nM]
20 | CC1(C)[C@@H]2[C@H]3C(=O)N[C@H](C#N)C[C@H]4C(=O)NC[C@@H]4CCCCC(=O)N3C[C@@H]21 [Example 25] | 1000 to 20000 | 1000 to 20000
21 | N#C[C@@H]1C[C@H]2C(=O)NC[C@@H]2CCCCC(=O)N2C[C@@H]3CCC[C@@H]3[C@H]2C(=O)N1 [Example 26] | > 20000 | > 20000
22 | CC(C)C[C@@H]1NC(=O)[C@@H](Cc2ccccc2)CCC[C@H]2CNC(=O)[C@@H]2C[C@@H](C#N)NC1=O [Example 27] | 1000 to 20000 | 1000 to 20000
23 | CC(C)C[C@@H]1NC(=O)[C@@H](C2CCCC2)CCC[C@H]2CNC(=O)[C@@H]2C[C@@H](C#N)NC1=O [Example 28] | 1000 to 20000 | 1000 to 20000
24 | CC(C)C[C@@H]1NC(=O)[C@@H](OC(C)(C)C)CCC[C@H]2CNC(=O)[C@@H]2C[C@@H](C#N)NC1=O [Example 29] | > 20000 | > 20000
25 | CC(C)C[C@@H]1NC(=O)CCCCC[C@H]2CNC(=O)[C@H]2C[C@@H](C=O)NC1=O [Example 30] | 1000 to 20000 | 100 to 1000
26 | CC(C)C[C@@H]1NC(=O)CCCCC[C@@H]2CNC(=O)[C@H]2C[C@@H](C=O)NC1=O [Example 31] | > 20000 | > 20000
27 | CC(C)C[C@@H]1NC(=O)CCCCC[C@H]2CNC(=O)[C@@H]2C[C@@H](C=O)NC1=O [Example 32] | 100 to 1000 | 100 to 1000
28 | CC(C)C[C@@H]1NC(=O)CCCCC[C@@H]2CCNC(=O)[C@H]2C[C@@H](C=O)NC1=O [Example 33] | > 20000 | > 20000
29 | CC(C)C[C@@H]1NC(=O)CCCCC[C@H]2CCNC(=O)[C@@H]2C[C@@H](C=O)NC1=O [Example 34] | 1000 to 20000 | 100 to 1000
30 | CC(C)C[C@@H]1NC(=O)[C@@H](Cc2ccccc2)CCCC[C@@H]2CNC(=O)[C@@H]2C[C@@H](C=O)NC1=O [Example 35] |  | 1000 to 20000
31 | CC(C)C[C@@H]1NC(=O)[C@@H](Cc2ccccc2)CCCC[C@H]2CNC(=O)[C@H]2C[C@@H](C=O)NC1=O [Example 36] | 100 to 1000 | < 100
32 | CC(C)C[C@@H]1NC(=O)[C@@H](Cc2ccccc2)CCCC[C@H]2CNC(=O)[C@@H]2C[C@@H](C=O)NC1=O [Example 37] | 100 to 1000 | < 100
33 | CC(C)C[C@@H]1NC(=O)CCCCC[C@H]2CNC(=O)[C@H]2C[C@@H](C#N)NC1=O [Example 38] | > 20000 | 1000 to 20000
34 | CC(C)C[C@@H]1NC(=O)[C@@H](Cc2ccccc2)CCCC[C@H]2CNC(=O)[C@H]2C[C@@H](C#N)NC1=O [Example 39] | 1000 to 20000 | 100 to 1000
35 | CC(C)C[C@@H]1NC(=O)[C@@H](Cc2cccc(C(F)(F)F)c2)CCCC[C@H]2CNC(=O)[C@H]2C[C@@H](C#N)NC1=O [Example 40] | 1000 to 20000 | 1000 to 20000
36 | CC(C)C[C@@H]1NC(=O)[C@@H](C2CCCC2)CCCC[C@H]2CNC(=O)[C@H]2C[C@@H](C#N)NC1=O [Example 41] |  | > 20000
37 | CC(C)C[C@@H]1NC(=O)[C@@H](Cc2ccc(F)cc2)CCCC[C@@H]2CNC(=O)[C@@H]2C[C@@H](C#N)NC1=O [Example 42] | 1000 to 20000 | 1000 to 20000
38 | CC(C)C[C@@H]1NC(=O)[C@@H](Cc2ccc(F)cc2)CCCC[C@H]2CNC(=O)[C@H]2C[C@@H](C#N)NC1=O [Example 43] | 1000 to 20000 | 1000 to 20000

Row | Compound | IC50 (MERS-CoV 3CLpro) [nM] | IC50 (SARS-CoV-2 3CLpro) [nM]
39 | CC(C)C[C@@H]1NC(=O)[C@@H](NC(=O)C(C)(C)C)CCCC[C@H]2CNC(=O)[C@H]2C[C@@H](C#N)NC1=O [Example 44] | 100 to 1000 | < 100
40 | CC(C)C[C@@H]1NC(=O)CCCCCC[C@H]2CNC(=O)[C@H]2C[C@@H](C=O)NC1=O [Example 45] | 1000 to 20000 | 100 to 1000
41 | CC(C)C[C@@H]1NC(=O)CCCCCC[C@@H]2CNC(=O)[C@@H]2C[C@@H](C=O)NC1=O [Example 46] | 1000 to 20000 | 1000 to 20000
42 | CC(C)C[C@@H]1NC(=O)CCCCCC[C@@H]2CNC(=O)[C@H]2C[C@@H](C=O)NC1=O [Example 47] | > 20000 | 1000 to 20000
43 | CC(C)C[C@@H]1NC(=O)CCCCCC[C@H]2CNC(=O)[C@@H]2C[C@@H](C=O)NC1=O [Example 48] | 100 to 1000 | 100 to 1000
44 | CC(C)C[C@@H]1NC(=O)[C@@H](Cc2ccccc2)CCCCC[C@@H]2CNC(=O)[C@@H]2C[C@@H](C#N)NC1=O [Example 49] | > 20000 | > 20000
45 | CC(C)C[C@@H]1NC(=O)[C@@H](Cc2ccccc2)CCCCC[C@H]2CNC(=O)[C@H]2C[C@@H](C#N)NC1=O [Example 50] | 1000 to 20000 | 1000 to 20000
46 | CC(C)C[C@@H]1NC(=O)CCCCCC[C@@H]2CNCC(=O)[C@H]2C[C@@H](C=O)NC1=O [Example 51] | > 20000 | 1000 to 20000
47 | CC(C)C[C@@H]1NC(=O)CCCCCC[C@H]2CNCC(=O)[C@@H]2C[C@@H](C=O)NC1=O [Example 52] | 1000 to 20000 | 100 to 1000
48 | CC(C)(C)C[C@@H]1NC(=O)[C@@H](NC(=O)C(C)(C)C)CCCC[C@H]2CNC(=O)[C@H]2C[C@@H](C#N)NC1=O [Example 53] | 100 to 1000 | < 100
49 | CC(C)C[C@@H]1NC(=O)[C@@H](NC(=O)C(C)(C)C)CCCC[C@H]2CNC(=O)[C@@H]2C[C@@H](C#N)NC1=O [Example 54] | 100 to 1000 | 100 to 1000
50 | CC(C)(C)C(=O)N[C@H]1CCCC[C@H]2CNC(=O)[C@H]2C[C@@H](C#N)NC(=O)[C@@H]2[C@@H]3[C@H](CN2C1=O)C3(C)C [Example 55] | 100 to 1000 | < 100
51 | CC(C)C[C@@H]1NC(=O)[C@@H](NC(=O)OC(C)(C)C)CCCC[C@H]2CNC(=O)[C@H]2C[C@@H](C#N)NC1=O [Example 56] | 100 to 1000 | 100 to 1000
52 | CC(C)C[C@H]1C(=O)N[C@H](C#N)C[C@@H]2C(=O)NC[C@@H]2CCCC[C@H](NC(=O)C(C)(C)C)C(=O)N1C [Example 57] | 1000 to 20000 | 100 to 1000
53 | CC(C)C[C@@H]1NC(=O)[C@@H](NC(=O)C(C)(C)C)CC/C=C/[C@H]2CNC(=O)[C@H]2C[C@@H](C#N)NC1=O [Example 58] | 100 to 1000 | < 100
54 | CC(C)C[C@@H]1NC(=O)[C@@H](NC(=O)C(C)(C)C)CC/C=C\[C@H]2CNC(=O)[C@H]2C[C@@H](C#N)NC1=O [Example 59] | 1000 to 20000 | 100 to 1000
55 | CC(C)(C)C[C@@H]1NC(=O)[C@@H](NC(=O)OC(C)(C)C)CCCC[C@H]2CNC(=O)[C@H]2C[C@@H](C#N)NC1=O [Example 60] | 100 to 1000 | < 100
56 | CC(C)(C)OC(=O)N[C@H]1CCCC[C@H]2CCNC(=O)[C@H]2C[C@@H](C#N)NC(=O)[C@@H]2[C@@H]3[C@H](CN2C1=O)C3(C)C [Example 96] | < 100 | 
